Assay results from publication PMC5218480 (PLoS ONE, 2017).

Test system: MV-4-11 cells
Assay: Gene expression microarray analysis (Affymetrix PrimeView) and GSEA
Format: cell-based, human
Parameters: RFU PODN (11730768_x_at) / Fold change /veh PODN (11730768_x_at) / RFU LINC00158 (11744669_a_at) / Fold change /veh LINC00158 (11744669_a_at) / RFU DUSP10 (11751237_a_at) / Fold change /veh DUSP10 (11751237_a_at) / RFU ID3 (11757404_x_at) / Fold change /veh ID3 (11757404_x_at) / RFU PLEKHG5 (11737974_s_at) / Fold change /veh PLEKHG5 (11737974_s_at) / RFU LRRC4B (11730491_at) / Fold change /veh LRRC4B (11730491_at) / RFU GIMAP4 (11747438_a_at) / Fold change /veh GIMAP4 (11747438_a_at) / RFU KRT8 (11758183_x_at) / Fold change /veh KRT8 (11758183_x_at) / RFU CNN1 (11734310_a_at) / Fold change /veh CNN1 (11734310_a_at) / RFU VPS37D (11726825_at) / Fold change /veh VPS37D (11726825_at) / RFU C10orf10 (11716522_x_at) / Fold change /veh C10orf10 (11716522_x_at) / RFU KIR2DL2 /// KIR2DL4 /// KIR2DL5A /// KIR2DL5B /// KIR2DS1 /// KIR2DS2 /// KIR2DS3 /// KIR2DS4 /// KIR3DL3 /// KIR3DL3 /// KIR3DS1 (11738374_at) / Fold change /veh KIR2DL2 /// KIR2DL4 /// KIR2DL5A /// KIR2DL5B /// KIR2DS1 /// KIR2DS2 /// KIR2DS3 /// KIR2DS4 /// KIR3DL3 /// KIR3DL3 /// KIR3DS1 (11738374_at) / RFU C1QL1 (11718748_at) / Fold change /veh C1QL1 (11718748_at) / RFU TMPRSS4 (11747572_a_at) / Fold change /veh TMPRSS4 (11747572_a_at) / RFU HAMP (11756126_x_at) / Fold change /veh HAMP (11756126_x_at) / RFU RNFT2 (11725882_a_at) / Fold change /veh RNFT2 (11725882_a_at) / RFU NR4A2 (11747474_a_at) / Fold change /veh NR4A2 (11747474_a_at) / RFU ABCC12 (11746883_a_at) / Fold change /veh ABCC12 (11746883_a_at) / RFU TMEM136 (11760407_x_at) / Fold change /veh TMEM136 (11760407_x_at) / RFU CLDN22 /// WWC2 (11732394_at) / Fold change /veh CLDN22 /// WWC2 (11732394_at) / RFU HLA-DPB1 (11760878_x_at) / Fold change /veh HLA-DPB1 (11760878_x_at) / RFU SPINT1 (11716480_a_at) / Fold change /veh SPINT1 (11716480_a_at) / RFU GAP43 (11754022_s_at) / Fold change /veh GAP43 (11754022_s_at) / RFU A4GNT (11735810_at) / Fold change /veh A4GNT (11735810_at) / RFU PRB3 (11715151_x_at) / Fold change /veh PRB3 (11715151_x_at) / RFU TUBB4B (11761932_at) / Fold change /veh TUBB4B (11761932_at) / RFU CAPN14 (11732068_a_at) / Fold change /veh CAPN14 (11732068_a_at) / RFU TMCC2 (11721928_a_at) / Fold change /veh TMCC2 (11721928_a_at) / RFU IRGQ (11745062_a_at) / Fold change /veh IRGQ (11745062_a_at) / RFU FAM174B (11720279_a_at) / Fold change /veh FAM174B (11720279_a_at) / RFU TMPRSS4 (11748680_a_at) / Fold change /veh TMPRSS4 (11748680_a_at) / RFU FAM212B (11763350_a_at) / Fold change /veh FAM212B (11763350_a_at) / RFU PLEKHG5 (11743358_a_at) / Fold change /veh PLEKHG5 (11743358_a_at) / RFU ZSCAN30 (11745921_a_at) / Fold change /veh ZSCAN30 (11745921_a_at) / RFU CMKLR1 (11741424_a_at) / Fold change /veh CMKLR1 (11741424_a_at) / RFU LOC101060620 /// MAPK8IP1 (11723275_at) / Fold change /veh LOC101060620 /// MAPK8IP1 (11723275_at) / RFU SPTSSB (11747773_x_at) / Fold change /veh SPTSSB (11747773_x_at) / RFU PRSS12 (11739890_at) / Fold change /veh PRSS12 (11739890_at) / RFU BIN1 (11741810_x_at) / Fold change /veh BIN1 (11741810_x_at) / RFU WNT11 (11732464_a_at) / Fold change /veh WNT11 (11732464_a_at) / RFU C10orf10 (11716521_a_at) / Fold change /veh C10orf10 (11716521_a_at) / RFU C5orf56 (11738089_at) / Fold change /veh C5orf56 (11738089_at) / RFU CYB561 (11721691_x_at) / Fold change /veh CYB561 (11721691_x_at) / RFU ANKRD19P (11752326_a_at) / Fold change /veh ANKRD19P (11752326_a_at) / RFU OR2T12 /// OR2T33 /// OR2T8 (11738714_s_at) / Fold change /veh OR2T12 /// OR2T33 /// OR2T8 (11738714_s_at) / RFU VCAN (11748164_a_at) / Fold change /veh VCAN (11748164_a_at) / RFU JSRP1 (11732532_at) / Fold change /veh JSRP1 (11732532_at) / RFU KRTAP10-11 (11738290_x_at) / Fold change /veh KRTAP10-11 (11738290_x_at) / RFU MYO3A (11730013_a_at) / Fold change /veh MYO3A (11730013_a_at) / RFU EBF3 (11725865_a_at) / Fold change /veh EBF3 (11725865_a_at) / RFU CAMK2N1 (11719241_x_at) / Fold change /veh CAMK2N1 (11719241_x_at) / RFU C5orf56 (11738088_a_at) / Fold change /veh C5orf56 (11738088_a_at) / RFU OLFML3 (11715873_a_at) / Fold change /veh OLFML3 (11715873_a_at) / RFU LOC100653217 /// NTM (11731650_a_at) / Fold change /veh LOC100653217 /// NTM (11731650_a_at) / RFU MAPK11 (11762145_a_at) / Fold change /veh MAPK11 (11762145_a_at) / RFU FIZ1 (11724087_x_at) / Fold change /veh FIZ1 (11724087_x_at) / RFU OASL (11726364_x_at) / Fold change /veh OASL (11726364_x_at) / RFU SOX15 (11748057_x_at) / Fold change /veh SOX15 (11748057_x_at) / RFU CD79A (11719716_a_at) / Fold change /veh CD79A (11719716_a_at) / RFU HIST1H1D (11736915_at) / Fold change /veh HIST1H1D (11736915_at) / RFU CASKIN2 (11723855_a_at) / Fold change /veh CASKIN2 (11723855_a_at) / RFU LOC730098 (11760151_x_at) / Fold change /veh LOC730098 (11760151_x_at) / RFU OR4N2 (11742367_at) / Fold change /veh OR4N2 (11742367_at) / RFU PRRT2 (11749266_a_at) / Fold change /veh PRRT2 (11749266_a_at) / RFU SNX32 (11753110_a_at) / Fold change /veh SNX32 (11753110_a_at) / RFU CDHR5 (11726645_a_at) / Fold change /veh CDHR5 (11726645_a_at) / RFU RCAN1 (11760418_a_at) / Fold change /veh RCAN1 (11760418_a_at) / RFU FAM167A (11723789_a_at) / Fold change /veh FAM167A (11723789_a_at) / RFU FAM26E (11764081_at) / Fold change /veh FAM26E (11764081_at) / RFU ISYNA1 (11749810_s_at) / Fold change /veh ISYNA1 (11749810_s_at) / RFU ACY1 (11761880_at) / Fold change /veh ACY1 (11761880_at) / RFU 11764098_at / Fold change /veh 11764098_at / RFU SAMD14 (11745864_x_at) / Fold change /veh SAMD14 (11745864_x_at) / RFU NPB (11741838_a_at) / Fold change /veh NPB (11741838_a_at) / RFU TMPRSS6 (11731388_a_at) / Fold change /veh TMPRSS6 (11731388_a_at) / RFU KRTAP10-2 (11738614_at) / Fold change /veh KRTAP10-2 (11738614_at) / RFU ARHGAP8 /// PRR5-ARHGAP8 (11727945_x_at) / Fold change /veh ARHGAP8 /// PRR5-ARHGAP8 (11727945_x_at) / RFU KRTAP5-7 /// NADSYN1 (11734609_at) / Fold change /veh KRTAP5-7 /// NADSYN1 (11734609_at) / RFU RASL12 (11751679_a_at) / Fold change /veh RASL12 (11751679_a_at) / RFU CDKN2B (11736163_a_at) / Fold change /veh CDKN2B (11736163_a_at) / RFU PRF1 (11729649_at) / Fold change /veh PRF1 (11729649_at) / RFU, ZNF638 /// ZNF638-IT1 / Fold change vs veh, ZNF638 /// ZNF638-IT1 / RFU, PANK3 / Fold change vs veh, PANK3 / RFU, SH3YL1 / Fold change vs veh, SH3YL1 / RFU, ZEB2 / Fold change vs veh, ZEB2 / RFU, NRIP1 / Fold change vs veh, NRIP1 / RFU, PTTG1IP / Fold change vs veh, PTTG1IP / RFU, CAPN2 / Fold change vs veh, CAPN2 / RFU, MED14 / Fold change vs veh, MED14 / RFU, SNORA58 / Fold change vs veh, SNORA58 / RFU, C1orf63 / Fold change vs veh, C1orf63 / RFU, LRRFIP1 / Fold change vs veh, LRRFIP1 / RFU, NDUFAF7 / Fold change vs veh, NDUFAF7 / RFU, SLC12A2 / Fold change vs veh, SLC12A2 / RFU, IBTK / Fold change vs veh, IBTK / RFU, ESF1 / Fold change vs veh, ESF1 / Fold change vs veh, TMEM50B / RFU, TAOK1 / Fold change vs veh, TAOK1 / RFU, ACBD3 / Fold change vs veh, ACBD3 / RFU, TMA16 / Fold change vs veh, TMA16 / RFU, RWDD3 / Fold change vs veh, RWDD3 / RFU, BCAT1 / Fold change vs veh, BCAT1 / RFU, EDEM3 / Fold change vs veh, EDEM3 / RFU, TMEM33 / Fold change vs veh, TMEM33 / RFU, WDR75 / Fold change vs veh, WDR75 / RFU, AHCTF1 / Fold change vs veh, AHCTF1 / RFU, TFRC / Fold change vs veh, TFRC / RFU, ZDHHC17 / Fold change vs veh, ZDHHC17 / RFU, NOM1 / Fold change vs veh, NOM1 / RFU, ARL8B / Fold change vs veh, ARL8B / RFU, ZBTB11 / Fold change vs veh, ZBTB11 / RFU, TAMM41 / Fold change vs veh, TAMM41 / RFU, KIAA1704 /// LOC100996395 / Fold change vs veh, KIAA1704 /// LOC100996395 / RFU, ING1 / Fold change vs veh, ING1 / RFU, TRMT61B / Fold change vs veh, TRMT61B / RFU, FUBP3 / Fold change vs veh, FUBP3 / RFU, TP53 / Fold change vs veh, TP53 / RFU, TNKS2 / Fold change vs veh, TNKS2 / RFU, ZFP14 / Fold change vs veh, ZFP14 / RFU, ACTR2 / Fold change vs veh, ACTR2 / RFU, PPP3R1 / Fold change vs veh, PPP3R1 / RFU, PIK3R1 / Fold change vs veh, PIK3R1 / RFU, HNRNPA1 / Fold change vs veh, HNRNPA1 / RFU, RNF170 / Fold change vs veh, RNF170 / RFU, ZNF28 / Fold change vs veh, ZNF28 / RFU, RNGTT / Fold change vs veh, RNGTT / RFU, OGT / Fold change vs veh, OGT / RFU, BRD1 / Fold change vs veh, BRD1 / RFU, MARS / Fold change vs veh, MARS / RFU, ZNF655 / Fold change vs veh, ZNF655 / RFU, FAHD1 / Fold change vs veh, FAHD1 / RFU, BDP1 / Fold change vs veh, BDP1 / RFU, LRRCC1 / Fold change vs veh, LRRCC1 / RFU, ARID1A / Fold change vs veh, ARID1A / RFU, ZNF146 / Fold change vs veh, ZNF146 / RFU, ZNF330 / Fold change vs veh, ZNF330 / RFU, GPN3 / Fold change vs veh, GPN3 / RFU, C9orf123 / Fold change vs veh, C9orf123 / RFU, N4BP2L2 / Fold change vs veh, N4BP2L2 / RFU, ARFIP1 / Fold change vs veh, ARFIP1 / RFU, FAM179B / Fold change vs veh, FAM179B / RFU, BCL10 / Fold change vs veh, BCL10 / RFU, UHRF1BP1L / Fold change vs veh, UHRF1BP1L / RFU, BET1 / Fold change vs veh, BET1 / RFU, CNOT2 / Fold change vs veh, CNOT2 / RFU, ZNF268 / Fold change vs veh, ZNF268 / Fold change vs veh, ZNF507 / RFU, DGCR2 / Fold change vs veh, DGCR2 / RFU, WDSUB1 / Fold change vs veh, WDSUB1 / Fold change vs veh, HSP90B1 /// MIR3652 / RFU, ADSS / Fold change vs veh, ADSS / RFU, GK / Fold change vs veh, GK / RFU, ZNF148 / Fold change vs veh, ZNF148 / RFU, TAF9 / Fold change vs veh, TAF9 / RFU, SLC1A5 / Fold change vs veh, SLC1A5 / RFU, SLMO2 / Fold change vs veh, SLMO2 / RFU, ABCC4 / Fold change vs veh, ABCC4 / RFU, LOC101060439 /// RAP1B / Fold change vs veh, LOC101060439 /// RAP1B / RFU, RFX7 / Fold change vs veh, RFX7 / RFU, GTPBP10 / Fold change vs veh, GTPBP10 / RFU, CNEP1R1 / Fold change vs veh, CNEP1R1 / RFU, BIVM-ERCC5 /// ERCC5 / Fold change vs veh, BIVM-ERCC5 /// ERCC5 / RFU, ILF3 / Fold change vs veh, ILF3 / RFU 11762660_at / Fold change /veh 11762660_at / RFU VCAN (11757783_s_at) / Fold change /veh VCAN (11757783_s_at) / RFU DDX43 (11728927_at) / Fold change /veh DDX43 (11728927_at) / RFU KRT8 (11758188_x_at) / Fold change /veh KRT8 (11758188_x_at) / RFU NKD1 (11759106_at) / Fold change /veh NKD1 (11759106_at) / RFU SRD5A1 (11742802_a_at) / Fold change /veh SRD5A1 (11742802_a_at) / RFU TPSAB1 /// TPSB2 (11721975_s_at) / Fold change /veh TPSAB1 /// TPSB2 (11721975_s_at) / RFU GSTM3 (11746129_a_at) / Fold change /veh GSTM3 (11746129_a_at) / RFU IL23R (11737362_x_at) / Fold change /veh IL23R (11737362_x_at) / RFU TMEM51 (11727254_a_at) / Fold change /veh TMEM51 (11727254_a_at) / RFU PIWIL2 (11732686_x_at) / Fold change /veh PIWIL2 (11732686_x_at) / RFU ORM1 (11744905_x_at) / Fold change /veh ORM1 (11744905_x_at) / RFU CCDC152 (11743942_at) / Fold change /veh CCDC152 (11743942_at) / RFU ECM1 (11717891_a_at) / Fold change /veh ECM1 (11717891_a_at) / RFU IL23R (11748794_a_at) / Fold change /veh IL23R (11748794_a_at) / RFU TNFAIP8L3 (11732012_x_at) / Fold change /veh TNFAIP8L3 (11732012_x_at) / RFU MBOAT4 (11741988_at) / Fold change /veh MBOAT4 (11741988_at) / RFU 11764193_at / Fold change /veh 11764193_at / RFU TMEM53 (11763286_at) / Fold change /veh TMEM53 (11763286_at) / RFU MAGEB2 (11727129_at) / Fold change /veh MAGEB2 (11727129_at) / RFU TMEM200A (11744735_a_at) / Fold change /veh TMEM200A (11744735_a_at) / RFU CCDC152 (11751479_a_at) / Fold change /veh CCDC152 (11751479_a_at) / RFU FAM211A (11726209_a_at) / Fold change /veh FAM211A (11726209_a_at) / RFU RGS16 (11746705_a_at) / Fold change /veh RGS16 (11746705_a_at) / RFU VCAN (11755009_s_at) / Fold change /veh VCAN (11755009_s_at) / RFU RHOB (11743442_s_at) / Fold change /veh RHOB (11743442_s_at) / RFU RGS16 (11720943_a_at) / Fold change /veh RGS16 (11720943_a_at) / RFU RGS16 (11720944_at) / Fold change /veh RGS16 (11720944_at) / RFU, VPS4B / Fold change vs veh, VPS4B / RFU, CREB1 / Fold change vs veh, CREB1 / RFU, DNAJC13 / Fold change vs veh, DNAJC13 / RFU, GNAQ / Fold change vs veh, GNAQ / RFU, CDK5R1 / Fold change vs veh, CDK5R1 / RFU, ZRANB3 / Fold change vs veh, ZRANB3 / RFU, CUL4A / Fold change vs veh, CUL4A / RFU, CCNY / Fold change vs veh, CCNY / RFU, UFL1 / Fold change vs veh, UFL1 / RFU, COG3 / Fold change vs veh, COG3 / RFU, DIAPH2 / Fold change vs veh, DIAPH2 / RFU, SKA2 / Fold change vs veh, SKA2 / RFU, AFF3 / Fold change vs veh, AFF3 / RFU, LMF1 / Fold change vs veh, LMF1 / RFU, IPO11 / Fold change vs veh, IPO11 / RFU, DFFB / Fold change vs veh, DFFB / RFU, FOXP1 / Fold change vs veh, FOXP1 / RFU, CARD8 / Fold change vs veh, CARD8 / RFU, STRN3 / Fold change vs veh, STRN3 / RFU, ADK / Fold change vs veh, ADK / RFU, RASSF2 / Fold change vs veh, RASSF2 / RFU, WIPF1 / Fold change vs veh, WIPF1 / RFU, LARP1B / Fold change vs veh, LARP1B / RFU, RASA1 / Fold change vs veh, RASA1 / RFU, RB1 / Fold change vs veh, RB1 / RFU, PPFIA1 / Fold change vs veh, PPFIA1 / RFU, MAT2A / Fold change vs veh, MAT2A / RFU, CCT5 / Fold change vs veh, CCT5 / RFU, WDR92 / Fold change vs veh, WDR92 / RFU, CUX1 / Fold change vs veh, CUX1 / RFU, TTC7A / Fold change vs veh, TTC7A / RFU, TMEM135 / Fold change vs veh, TMEM135 / RFU, DEPTOR / Fold change vs veh, DEPTOR / RFU, CPM / Fold change vs veh, CPM / RFU, DNAJB6 / Fold change vs veh, DNAJB6 / RFU, CACNA2D3 / Fold change vs veh, CACNA2D3 / RFU, DTX4 / Fold change vs veh, DTX4 / RFU, TFCP2 / Fold change vs veh, TFCP2 / RFU, GMCL1 /// GMCL1P1 / Fold change vs veh, GMCL1 /// GMCL1P1 / RFU, AEBP2 / Fold change vs veh, AEBP2 / RFU, SNHG1 /// SNORD22 /// SNORD25 /// SNORD26 /// SNORD27 /// SNORD28 /// SNORD29 /// SNORD31 / Fold change vs veh, SNHG1 /// SNORD22 /// SNORD25 /// SNORD26 /// SNORD27 /// SNORD28 /// SNORD29 /// SNORD31 / Fold change (Aza/veh), C12orf56 (ProbeSet 11735607_a_at) / Fold change (ACY-1035/veh), C12orf56 (ProbeSet 11735607_a_at) / Fold change (Aza/veh), FGFR1OP (ProbeSet 11751329_s_at) / Fold change (ACY-1035/veh), FGFR1OP (ProbeSet 11751329_s_at) / Fold change (Aza/veh), VPS36 (ProbeSet 11739960_a_at) / Fold change (ACY-1035/veh), VPS36 (ProbeSet 11739960_a_at) / RFU SYPL1 (11715823_x_at) / Fold change /veh SYPL1 (11715823_x_at) / RFU IGFBP7 (11715501_s_at) / Fold change /veh IGFBP7 (11715501_s_at) / RFU REEP3 (11722064_at) / Fold change /veh REEP3 (11722064_at) / RFU IGLL1 (11728026_x_at) / Fold change /veh IGLL1 (11728026_x_at): dose or concentration left out as unconfirmed
Conditions: MV-4-11 cells, 48 hours

SMILES: Nc1ncn([C@@H]2O[C@H](CO)[C@@H](O)[C@H]2O)c(=O)n1 [azacitidine]
- Fold change /veh LOC730098 (11760151_x_at): 1.03
